Patent publication US8450308B2 (Vitae Pharmaceuticals, Inc., priority 2008, dated 2013)
pIC50: −log10 of the molar value. Read-outs that look alike come from different tables or passages of the source.

Assay: BACE cell assay: soluble Amyloid Beta 1-40 (Aβ 1-40) in culture media of H4-APPsw cells
Assay type: cell-based
Protocol: H4 neuroglioma cell line that stably expresses Amyloid Precursor Protein (APP) containing the KM-NL Swedish mutation (H4-APPsw) was generated. For the assay, cells are treated overnight in the presence of inhibitor and the culture media are subjected to ELISA analysis of soluble Amyloid Beta 1-40 (Aβ 1-40).
H4 neuroglioma cell line was cultured in DMEM with 10% FBS and 1% penicillin/streptomycin (Culture Medium) at 37° C., 5% CO2. […] 24 hrs after transfection, the cells were replaced into three new plates (150 mm) in fresh Culture Medium with 250 ug/ml Zeocin. […] The levels of APPsw expression were analyzed by immunoblotting and the production of Aβ 1-40 was detected by ELISA of culture supernatants. The selected clones are maintained in Culture Medium with 250 μg/ml Zeocin and routinely split in 3-4 days to maintain 20-80% confluence.
Split cells. Split H4-APPsw cells in Culture Medium and culture overnight such that cells will be ˜80% confluent next morning.
Create Compound Dilution Plate. After determining the desired final concentration of compound to be tested, create a 500× dilution plate. Add DMSO, but not inhibitor, to each well of Column 1. […] Add compounds of interest at 500× desired final concentration to wells A3-A10. Add DMSO, but not inhibitor, to each well of Columns 11 and 12. Dilute contents of Row A 1:3 in Row B. then continue through Rows C—H.
Create Media Plate. To create a 2× solution of compound in media, add 996 μL Culture Medium to each well of a 96-well 2 ml deep well plate (Media Plate) in biosafety hood. Add 4 μL 5 mM control compound to Media Plate wells A1-D1 for determination of full inhibition.
Add media to Cell Plate. With a multichannel pipettor, mix each well of Media Plate several times to insure homogeneity. Add 100 μL of mixture to Black polymer bottom P-D-L plates. Next, place Medium Plate and Cell Plate in the incubator.
Add cells to Cell Plate. Trypsinize and count H4-APPsw cells. Dilute cells 6×10^5 cells/ml in Culture Medium and remove Cell Plate from incubator. Vortex cells to homogeneity, then using a multichannel repeating pipettor, add 100 μL cell suspension to Cell Plate, adding cells from Row H to Row A. Place Cell Plate in incubator.
Change media in Cell Plate. After 5 h, check Cell Plate by microscope to insure cells are attached. In culture hood, remove media from Cell Plate using multichannel repeating pipettor. Add 100 μl Culture Medium to each well. Remove Media Plate from incubator and mix with pipettor as previous. Add 100 μl from each well of Media Plate to corresponding well in Cell Plate. Place Cell Plate in incubator overnight.
Perform ELISA to determine levels of secreted Aβ 1-40. After 16 h incubation, spin Cell Plate for 8 min at 1200 rpm. The primary reading of Aβ 1-40 levels is done using PerkinElmer AlphaLISA technology. Follow the manufacturer's protocol for performing AlphaLISA in a white ½ area Optiwell plate using Row 12 for peptide standard (1:2 dilutions, starting at 15 ng/ml). Data are acquired using PerkinElmer Fusion-Alpha FP-HT, Alpha protocol (Count Time 0.6 s, Count Time Ratio 30%:70%).
Export data from Fusion using Columnar Report format into a separate file for each plate. Upload data into Activity Base using RIA-DOSE-RESPONSE protocol (Version 1). Data from at least eight doses were fitted to a four parameter logistical model using XLfit software to determine potency.

[1] = in vitro cell activity, H4-APPsw cells, secreted Aβ 1-40, overnight treatment, read-out: IC50

| pIC50 [1] | SMILES | pIC50 |
| --- | --- | --- |
| 6.30 to 7.00 | CN1C(=O)[C@@]2(C[C@@]3(CCCOC3)Oc3ccc(-c4cc(Cl)cc(C#N)c4)cc32)N=C1N [Compound 263] |  |
| 6.30 to 7.00 | Cc1ccc(C#N)cc1-c1ccc2c(c1)[C@]1(C[C@]3(CCCOC3)O2)N=C(N)N(C)C1=O [Compound 277] |  |
| 7.00 to 9.00 | CN1C(=O)[C@@]2(C[C@]3(CCCOC3)Oc3ccc(-c4cc(Cl)cc(C#N)c4)cc32)N=C1N [Compound 203] |  |
| 7.00 to 9.00 | COc1cc(C#N)cc(-c2ccc3c(c2)C2(CC4(CCCOC4)O3)N=C(N)N(C)C2=O)c1 (stereo not drawn) [Compound 223] |  |
| 5.30 to 6.00 | CN1OC2(CC(C3CCc4ccccc43)Oc3ccc(-c4cccc(C#N)c4)cc32)N=C1N (stereo not drawn) [Compound 226] |  |
| 6.30 to 7.00 | CN1C(=O)C2(C[C@H](C3CCOC(C)(C)C3)Oc3ccc(-c4ccc(F)c(F)c4)cc32)N=C1N (stereo partly drawn) [Compound 254] |  |
| 6.30 to 7.00 | CN1C(=O)[C@@]2(C[C@]3(CCCOC3)Oc3ccc(-c4cccc(OC(F)(F)F)c4)cc32)N=C1N [Compound 262] |  |
| 7.00 to 9.00 | COc1cc(Cl)cc(-c2ccc3c(c2)C2(CC(C4CCOC(C)(C)C4)O3)N=C(N)N(C)C2=O)c1 (stereo not drawn) [Compound 193] |  |
| 5.30 to 6.00 | CN1O[C@]2(C[C@@]3(CCCc4ccccc43)Oc3ccc(-c4cccc(C#N)c4)cc32)N=C1N [Compound 266] |  |
| 6.30 to 7.00 | CN1OC2(CC3(CCCc4ccccc4C3)Oc3ccc(-c4ccc(F)c(C#N)c4)cc32)N=C1N (stereo not drawn) [Compound 199] |  |
| 5.00 to 5.30 | CN1OC2(CC(C3CCCc4ccccc43)Oc3ccc(-c4cc(F)cc(Cl)c4)cc32)N=C1N (stereo not drawn) [Compound 240] |  |
|  | CN1OC2(CC3(CCCc4ccccc4C3)Oc3ccc(-c4cccc(C#N)c4)cc32)N=C1N (stereo not drawn) [Compound 217] | 6.30 to 7.00 |
| 5.30 to 6.00 | CN1O[C@@]2(C[C@@H](C3CCCc4ccccc43)Oc3ccc(-c4ccc(F)c(Cl)c4)cc32)N=C1N (stereo partly drawn) [Compound 235] |  |
| 6.30 to 7.00 | CN1C(=O)C2(CC(C34CCC(CC3)OC4)Oc3ccc(-c4cccc(C#N)c4)cc32)N=C1N (stereo not drawn) [Compound 206] |  |
| 6.30 to 7.00 | CN1OC2(CC(C3CCOC(C)(C)C3)Oc3ccc(-c4cc(C#N)cc(C(F)(F)F)c4)cc32)N=C1N (stereo not drawn) [Compound 257] |  |
| 6.30 to 7.00 | CN1C(=O)[C@@]2(C[C@]3(CCCOC3)Oc3ccc(-c4cc(C#N)cc(C#N)c4)cc32)N=C1N [Compound 255] |  |
| 6.00 to 6.30 | CN1C(=O)[C@@]2(C[C@@]3(CCCOC3)Oc3ccc(-c4cc(F)cc(Cl)c4)cc32)N=C1N [Compound 270] |  |
| 6.00 to 6.30 | CN1OC2(CC(C3CCOC(C)(C)C3)Oc3ccc(-c4cc(C#N)ccc4F)cc32)N=C1N (stereo not drawn) [Compound 261] |  |
| 6.30 to 7.00 | CN1O[C@]2(C[C@H](C3CCOC(C)(C)C3)Oc3ccc(-c4cccc(C#N)c4)cc32)N=C1N (stereo partly drawn) [Compound 258] |  |
| 6.30 to 7.00 | CN1C(=O)C2(CC(C3CCOC(C)(C)C3)Oc3ccc(-c4cc(F)cc(F)c4F)cc32)N=C1N (stereo not drawn) [Compound 229] |  |
| 6.30 to 7.00 | CN1O[C@@]2(C[C@]3(CCCc4ccccc4C3)Oc3ccc(-c4cccc(C#N)c4)cc32)N=C1N [Compound 205] |  |
| 6.00 to 6.30 | CN1OC2(CC3(CCCc4ccccc4C3)Oc3ccc(-c4cccc(Cl)c4)cc32)N=C1N (stereo not drawn) [Compound 189] |  |
| 6.30 to 7.00 | CN1C(=O)[C@@]2(C[C@]3(CCCOC3)Oc3ccc(-c4cccc(C(F)(F)F)c4)cc32)N=C1N [Compound 243] |  |
| 6.30 to 7.00 | CN1C(=O)C2(C[C@H](C3CCCc4ccccc43)Oc3ccc(-c4cccc(C#N)c4)cc32)N=C1N (stereo in doubt) [Compound 188, 3-(2′-amino-1′-methyl-5′-oxo-2-(1,2,3,4-tetrahydronaphthalen-1-yl)-1′,5′-dihydrospiro[chroman-4,4′-imidazole]-6-yl)benzonitrile] |  |

| pIC50 [1] | SMILES | pIC50 |
| --- | --- | --- |
| 7.00 to 9.00 | CN1C(=O)C2(CC(C3CCOC(C)(C)C3)Oc3ccc(-c4cc(C#N)ccc4F)cc32)N=C1N (stereo not drawn) [Compound 218] |  |
| 5.30 to 6.00 | CC(C)C#Cc1ccc2c(c1)C1(CC3(CCCc4ccccc4C3)O2)N=C(N)N(C)O1 (stereo not drawn) [Compound 265] |  |
| 6.00 to 6.30 | CN1O[C@@]2(C[C@H](C3CCCc4ccccc43)Oc3ccc(-c4cccc(C#N)c4)cc32)N=C1N (stereo partly drawn) [Compound 247] |  |
| 6.00 to 6.30 | C[C@H]1CC[C@]2(CO1)CC1(N=C(N)N(C)O1)c1cc(-c3cccc(C#N)c3)ccc1O2 (stereo partly drawn) [Compound 272, 3-(3″-amino-2″-methyl-4″,5″-dihydro-2″H-spiro(spiro(chroman-2,3′-[(2R,6R/2S,6S)-2,4,5,6-tetrahydro-6-methyl-pyran])-(4R/4S)-4,5″-[1,2,4]oxadiazole)-6-yl)benzonitrile] |  |
| 6.00 to 6.30 | CC1CC[C@@]2(CO1)C[C@]1(N=C(N)N(C)O1)c1cc(-c3cc(F)cc(Cl)c3)ccc1O2 (stereo partly drawn) [Compound 232] |  |
| 6.00 to 6.30 | COc1cccc2c1CCCC1(C2)CC2(N=C(N)N(C)O2)c2cc(-c3cccc(C#N)c3)ccc2O1 (stereo not drawn) [Compound 225] |  |
| 6.00 to 6.30 | CN1C(=O)[C@@]2(C[C@@H](C3CCCc4ccccc43)Oc3ccc(-c4cccc(C#N)c4)cc32)N=C1N (stereo partly drawn) [Compound 245] |  |
| 7.00 to 9.00 | CN1OC2(CC3(CCCc4ccccc4C3)Oc3ccc(-c4cccnc4)cc32)N=C1N (stereo not drawn) [Compound 181] |  |
| 7.00 to 9.00 | CN1C(=O)C2(C[C@H]([C@H]3CCOC(C)(C)C3)Oc3ccc(-c4cccc(C#N)c4)cc32)N=C1N (stereo partly drawn) [Compound 230] |  |
| 5.30 to 6.00 | CN1O[C@@]2(C[C@@]3(CCCc4ccccc4C3)Oc3ccc(-c4cccc(C#N)c4)cc32)N=C1N [Compound 209] |  |
| 6.30 to 7.00 | CN1OC2(C[C@@]3(CCCc4ccccc4C3)Oc3ccc(-c4cccc(C#N)c4)cc32)N=C1N (stereo partly drawn) [Compound 251] |  |
| 6.30 to 7.00 | CN1O[C@@]2(C[C@@H]([C@H]3CCOC(C)(C)C3)Oc3ccc(-c4cccc(C#N)c4)cc32)N=C1N [Compound 207] |  |
| 7.00 to 9.00 | CN1C(=O)[C@@]2(C[C@]3(CCCOC3)Oc3ccc(-c4cc(C#N)cc(C(F)(F)F)c4)cc32)N=C1N [Compound 216] |  |
| 5.30 to 6.00 | CN1OC2(CC3(CCCc4ccccc4C3)Oc3ccc(C#CC4CC4)cc32)N=C1N (stereo not drawn) [Compound 238] |  |
| 7.00 to 9.00 | CN1C(=O)C2(CC(C3CCOC(C)(C)C3)Oc3ccc(-c4cccc(Cl)c4)cc32)N=C1N (stereo not drawn) [Compound 197] |  |
| 7.00 to 9.00 | CN1C(=O)C2(CC(C3CCOC(C)(C)C3)Oc3ccc(-c4ccc(F)c(C#N)c4)cc32)N=C1N (stereo not drawn) [Compound 182] |  |
| 5.00 to 5.30 | COc1cc(Cl)cc(-c2ccc3c(c2)C2(CC(C4CCCc5ccccc54)O3)N=C(N)N(C)O2)c1 (stereo not drawn) [Compound 278] |  |
| 7.00 to 9.00 | Cc1ccc(C#N)cc1-c1ccc2c(c1)[C@]1(C[C@H](C3CCOC(C)(C)C3)O2)N=C(N)N(C)C1=O (stereo partly drawn) [Compound 222] |  |
| 7.00 to 9.00 | CN1C(=O)C2(CC(C3CCOC(C)(C)C3)Oc3ccc(-c4cccc(C(F)(F)F)c4)cc32)N=C1N (stereo not drawn) [Compound 200] |  |
| 6.30 to 7.00 | CN1OC2(CC3(CCCc4ccccc4C3)Oc3ccc(-c4cc(Cl)cc(C#N)c4)cc32)N=C1N (stereo not drawn) [Compound 191] |  |
| 6.30 to 7.00 | CN1C(=O)[C@@]2(C[C@]3(CCCOC3)Oc3ccc(-c4ccc(F)c(Cl)c4)cc32)N=C1N [Compound 233] |  |
| 7.00 to 9.00 | CN1C(=O)C2(CC(C3CCOC(C)(C)C3)Oc3ccc(-c4cc(Cl)cc(Cl)c4)cc32)N=C1N (stereo not drawn) [Compound 196] |  |
| 6.00 to 6.30 | COc1cc(F)cc(-c2ccc3c(c2)[C@]2(C[C@]4(CCCOC4)O3)N=C(N)N(C)C2=O)c1 [Compound 271] |  |
| 6.00 to 6.30 | CN1OC2(CC3(CCCc4ccccc4C3)Oc3ccc(-c4ccc(F)c(Cl)c4)cc32)N=C1N (stereo not drawn) [Compound 192] |  |
